The melting point is the temperature of the solid-liquid transition.

This note sets out measurements from a melting point compilation (Tetko et al.; mined from patent text by program, amines drawn as free bases though some values may be those of a salt).

The structures appear in SMILES notation. Where only a bound is given, the exact number is not on record here.

Molecule `O=C(CC1CCCC1)NC[C@H]1CN(c2ccc3c(c2)CCCc2cnn(C(=O)CC4CCCC4)c2-3)C(=O)O1` registered a melting point of 165 to 167 °C.

Turning to `CN(C)CCCCCCNC(=O)c1ccc(-c2nnc(CSCCOc3ccccc3)o2)cc1`, the melting point was in the range of 86 to 93 °C.

Consider `Oc1ccc2c(c1)COc1c-2cc2ccc(O)cc2c1-c1cccc(Cl)c1`, for which the melting point lay in the range of 243 to 246 °C.

Regarding `COc1cc(OC)nc(NC(=O)NS(=O)(=O)c2ccccc2CCOC(C)=O)n1`, the melting point was in the range of 160 to 162 °C.

In turn, `C=C(C)C(=O)Nc1ccc(NC(=O)C(=C)C)cc1` had a melting point of 254 to 257 °C.

In the case of `O=C1NCCN(C(c2ccccc2)(c2ccccc2)c2ccccc2)C1=O`, the melting point is 230 to 235 °C.

For `Cc1oc(-c2ccccc2)nc1Cc1cc2cc(C=CC=C3OC(=O)NC3=O)ccc2o1`, the melting point was 237 to 239 °C.

In the case of `COC(=O)c1cc(C(=O)N[C@@H](Cc2ccccc2)[C@H]2CN(C3(c4cccc(C(F)(F)F)c4)CC3)C(=O)O2)n2c1CN(C(=O)OC(C)(C)C)CC2`, the melting point came to 106 °C.

The molecule `Cc1cc(C(=O)c2ccc(Cl)cc2)ccc1N` came in with a melting point of 113 to 116 °C.

`CN1C(=O)C(c2ccc(OCCCCCBr)cc2)Sc2cc(Cl)ccc21` (stereo unspecified) displayed a melting point of 66 to 68 °C.

Regarding `COc1ccc2ccc3[nH]c4ccc5ccc(OC)cc5c4c3c2c1`, the melting point amounted to 133 °C.

Take `Cc1nc2cc(NC(=O)c3cc4cc(F)ccc4n3Cc3cccc(F)c3)ccn2c1C`: the melting point is 251 to 253 °C.

In turn, `C=CCc1cccc2nc(Cc3ccccc3Cl)oc12` had a melting point of 61 to 62 °C.

In turn, `O=c1[nH]c2ncc(-c3ccc(-c4nc5ccccc5[nH]4)cc3)nc2n1CC1CCOCC1` came in with a melting point greater than 300 °C.

On to `COc1ccc2c(c1)c(CCON)c(C)n2Cc1ccc(Cl)cc1`, for which the melting point lay in the range of 92 to 94 °C.

With `Cc1c(N2CCC3(CC3N)C2)c(F)cc2c(=O)c(C(=O)O)cn([C@@H]3C[C@@H]3F)c12` (stereo partly specified), the melting point lay in the range of 103 to 109 °C.

As to `O=C1CSc2nc(Oc3ccc(N4CCNCC4)cc3)ncc2N1`, the melting point is 309 to 312 °C.

Molecule `Cc1nn(-c2c(Cl)cc(C(F)(F)F)cc2Cl)nc1Cl` registered a melting point of 100 to 115 °C.

`CC(C)(C)OC(=O)N[C@H]1COC1=O` displayed a melting point of 120 to 122 °C.

`COc1ccc2nc(-c3ccc(OC)c(F)c3)cc(C#N)c2c1` came in with a melting point of 189 to 190 °C.

On to `CN(C)c1ccc(/C=C/c2nc3cc(Cl)ccc3s2)cc1`, for which the melting point was in the range of 182 to 184 °C.

`CCC(Oc1ccc(C(C)(C)CC)cc1C(C)(C)CC)C(=O)O` (stereo unspecified) came in with a melting point of 89 °C.

Regarding `CCCn1nc2c(N)nc3ccccc3c2c1CC1(O)CCC1`, the melting point was in the range of 191 to 193 °C.

On to `COc1ccc(CNc2nc(NCCCc3cccc(C(C)=O)c3)nc3ncccc23)cc1OC`, for which the melting point lay in the range of 152 to 155 °C.

In turn, `COCc1ccc(C(=O)NCC#N)cc1` returned a melting point of 107 to 108 °C.

The molecule `O=C(Nc1ncc[nH]1)c1cnc2c(C(F)(F)F)cccc2c1O` came in with a melting point of 211 °C.

`CCOC(=O)CC(=O)c1ccc(NC(C)=O)cc1` yielded a melting point of 93 to 94 °C.

Turning to `OC(CNCCNc1ncnc2nc[nH]c12)COc1ccccc1` (stereo unspecified), the melting point was in the range of 169 to 170 °C.

The molecule `O=C1CC(=Cc2cccc3ccccc23)C(=O)O1` showed a melting point of 162 to 164 °C.

As for `COc1cccc(C2=CCN(c3ccc(Cl)nn3)CC2)c1`, the melting point came to 126 °C.

`Cc1sc2c(c1C)C(c1ccc(Cl)cc1)=NC(CC(=O)N1CCCCC1)c1nnc(C)n1-2` (stereo unspecified): the melting point is 260 to 262 °C.

`CCC(CC)n1c(=O)ccc2cnc(Nc3ccc(N4CCN(C)CC4)cc3)nc21`: the melting point lay within 155 to 157 °C.

`CC(C)Nc1cccc2c1C(=O)c1cccc(NC(C)C)c1C2=O` yielded a melting point of 170 to 172 °C.

`COC(=O)Cc1cccc(NC(=O)NC2C(=O)Nc3ccccc3NC2=O)c1` came in with a melting point greater than 300 °C.

`O=S(=O)(NC(=NO)Nc1ccc(Cl)cc1)c1ccc(-c2ccccn2)s1` registered a melting point of 210 °C.

Molecule `O=S1OC(c2ccc(F)cc2)C(Cn2cncn2)(c2ccc(Cl)cc2Cl)O1` (stereo unspecified) displayed a melting point of 170 to 171 °C.

As to `Clc1cncc(-n2cccc2)c1`, the melting point is 70.5 to 72 °C.

`Cc1cc(=O)n(C)c2c(C)cc(C(O)(C(F)(F)F)C(F)(F)F)cc12` yielded a melting point of 241 to 243 °C.

As for `CCCCC(=O)c1c(-c2ccc3c(C)c(OCC(=O)O)ccc3c2)oc2ccccc12`, the melting point was 153 to 155 °C.

`CC(C)(C)OC(=O)CCc1ccnc(-c2nc(=O)c3ccc(F)cc3s2)c1` had a melting point of 138 °C.

Regarding `COc1ccc(-c2nc3cccnc3n2CC(=O)N2CCCCC2)cc1`, the melting point lay in the range of 153 to 155 °C.

The molecule `C#Cc1cc(O)cc2nc(-c3ccc(O)cc3)oc12` yielded a melting point of 229 to 231 °C.

The molecule `C[C@H](Cc1ccc2oc(C(=O)O)cc2c1)NC[C@H](O)c1csc(C(F)(F)F)n1` gave a melting point of 168 to 171 °C.

With `CC(C)(C)c1ccc(C(N)=O)cc1[N+](=O)[O-]`, the melting point is 114 to 115 °C.

On to `CCOc1ccc(C(=O)CCC(=O)OC)cc1OCC`, for which the melting point fell in the range of 84 to 85 °C.

On to `CCCn1cc(C(=O)O)c2ccc(Cl)cc21`, for which the melting point was in the range of 179 to 180 °C.

Take `CCOC(=O)c1cn2c3c(c(F)c(F)cc3c1=O)OCC2COC(=O)c1cc([N+](=O)[O-])cc([N+](=O)[O-])c1` (stereo unspecified): the melting point lay within 240 to 242 °C.

`Cc1cc(NCC(O)CO)c2ccccc2n1` (stereo unspecified) displayed a melting point of 167 to 168 °C.

On to `CC(C)(C)O[C@H]1C[C@H]2CN(C3=Nc4cc(Cl)ccc4Sc4ccccc43)CCN2C1`, for which the melting point was in the range of 132 to 134 °C.

In the case of `CCOC(=O)c1[nH]nc(-c2ccc(C#N)cc2)c1C`, the melting point turned out to be 148 °C.

On to `CCN(CC)CCCNC(=O)Cn1ncc(-c2ccc(NS(C)(=O)=O)cc2)c1-c1ccccc1`, for which the melting point lay within 179 to 180 °C.

In turn, `O=c1[nH]c2ccc(-c3cccc([N+](=O)[O-])c3)cc2n1Cc1ccccc1` came in with a melting point of 202 to 203 °C.

For `N#CC(CCCOc1ccccc1)(Cn1cncn1)c1ccccc1` (stereo unspecified), the melting point was in the range of 85 to 86 °C.

Turning to `COc1c(C(=O)O)cc(Cl)c2c1CCCN2`, the melting point was in the range of 129 to 132 °C.

`CCc1cccc(CC)c1NC(=S)NC(C)C` came in with a melting point of 108 to 110 °C.

As for `CC(C)c1ccc(S(=O)(=O)Nc2ccc(N3CCC(NCC(O)COc4ccc(O)c(S(C)=O)c4)CC3)nc2)cc1` (stereo unspecified), the melting point is 128 to 130 °C.

`O=C(O)Cc1[nH]nc2c1CCCC2` returned a melting point of 155 to 156 °C.

The molecule `O=C(O)/C=C\C(=O)N1CCc2cc(S(=O)(=O)N3CCN(c4cccc(Cl)c4)CC3)ccc21` registered a melting point of 191 to 192 °C.

Take `CSCCCC(=O)NNC(=O)N1Cc2ccccc2Oc2ccc(Cl)cc21`: the melting point lay within 134 to 137 °C.

Turning to `CCCn1c(=O)nc(SC)c2c1ncn2C`, the melting point lay in the range of 225 to 226 °C.

For the molecule `CC1(C)CC(N)(C(N)=O)CC(C)(C)N1`, the melting point fell in the range of 142 to 144 °C.

As for `CSc1ccc(-c2nn(Cc3ccc(Cl)cc3Cl)c(=O)cc2-c2ccc(Cl)cc2)cc1`, the melting point was in the range of 154 to 155 °C.

In turn, `O=C(c1cccs1)c1cnn2c(-c3cccc(Br)c3)ccnc12` yielded a melting point of 193 to 195 °C.

Molecule `CO[C@]1(c2cccc(Sc3ccc4c(ccc(=O)n4C)c3)c2)CCO[C@@H](C)C1` gave a melting point of 93 to 96 °C.

In the case of `COc1cc(C(=O)CS(C)(=O)=O)cc(OC)c1NC(C)=O`, the melting point lay in the range of 193 to 195 °C.

`Cc1ccc2c([nH]c3c(C(=O)O)cccc32)c1Cl` displayed a melting point of 266 °C.

Molecule `COC(=O)c1ccc(NC(=O)c2ccccc2-c2ccccc2)cc1` displayed a melting point of 160 to 161 °C.

Turning to `Cc1nc(-c2ccc([C@H]3CN(c4nc(-c5ccncn5)cc(=O)n4C)CCO3)cc2)no1`, the melting point came out at 191 °C.

On to `CCC1CCC2C3CC=C4CCCCC4(C)C3CCC12C` (stereo unspecified), for which the melting point lay in the range of 104 to 106 °C.

For the molecule `COc1cc(C(O)Cc2c(C)cncc2C)nnc1OC` (stereo unspecified), the melting point lay in the range of 217 to 218 °C.

The molecule `CCNC1CCc2[nH]c3ccccc3c2C1` (stereo unspecified) came in with a melting point of 128 to 129 °C.

In turn, `CCOC(=O)Cc1ccc(S(=O)(=O)C2CC2)cc1` gave a melting point of 102 to 104 °C.

In turn, `Cc1noc(C2CN3CCC2CC3)n1` (stereo unspecified) showed a melting point of 112 to 115 °C.

As to `Cc1cccc(NC(=O)CS)c1`, the melting point lay within 58 to 60 °C.

As for `CCn1ccnc1CC1COc2ccccc2O1` (stereo unspecified), the melting point fell in the range of 77 to 78 °C.

`CCOc1nc(-c2cc(NC(=O)c3ccc(C)c(F)c3)ccc2C)c2c(n1)N(c1c(F)cccc1F)C(=O)NC2` gave a melting point of 257 to 262 °C.

Take `O=C1CN=C(c2ccccc2Cl)c2ccccc2N1`: the melting point lay within 109 to 111 °C.

Regarding `CN1CCCCC1COC(=O)c1c[nH]c2ccccc12` (stereo unspecified), the melting point lay within 168 to 170 °C.

On to `CCCCN(Sc1nc2ccccc2s1)C(C)(C)C`, for which the melting point lay within 55 to 56 °C.

With `CC(=O)NC1Cc2ccccc2C1`, the melting point lay within 126 to 128 °C.

Consider `c1ncn(Cc2nc(-c3ccc4c(c3)OCO4)c3cc4c(cc3n2)OCO4)n1`, for which the melting point was in the range of 195 to 198 °C.

For the molecule `CN(C)C(=O)c1c(-c2ccccc2)oc2c(CCl)cccc2c1=O`, the melting point lay in the range of 202 to 203 °C.

With `O=C1NC(=O)C(Sc2ccccn2)=C1Sc1ccccn1`, the melting point was in the range of 70 to 72 °C.

The molecule `Cc1nc2c(Cl)c(NC(=O)Cc3ccc(Cl)cc3Cl)ccc2s1` registered a melting point of 257 to 258 °C.

For the molecule `CNC(=O)N(OC(=O)NC(C)(C)C)C(C)=O`, the melting point lay in the range of 142 to 144 °C.

Take `CC(=O)n1c2ccccc2c2[nH]c(=O)c3nccn3c21`: the melting point was found to be 340 °C.

Molecule `CCC(=NOC)c1cccc(Oc2nc(OC)cc(OC)n2)c1C(=O)OC` had a melting point of 75 to 77 °C.

`CC(C)(C)c1ccc(C(=O)Nc2cn3nc(NC4CC4)ccc3n2)cc1` registered a melting point of 274 to 275 °C.

Take `O=C(c1ccc2nonc2c1)N(CC(F)(F)F)C1CCOCC1`: the melting point was in the range of 134 to 135 °C.

With `O=C(O)c1ccc2sc(Cc3cccnc3)cc2c1`, the melting point was 246 to 249 °C.

In the case of `CCCC[C@H]1C(=O)CC[C@@]2(C)CC[C@@H]3C[C@]12OC3(C)C`, the melting point lay in the range of 64 to 66 °C.
